From PMC9295122, “Sialic Acid Derivatives Inhibit SiaT Transporters and Delay Bacterial Growth” (ACS Chemical Biology, 2022)

Key:
[1] = molecular target: SaSiaT (Staphylococcus aureus, UniProt A0A0H2XJ46); experiment: [3H]Neu5Ac efflux in proteoliposomes, SaSiaT; format: biochemical; conditions: 0.1 mM external compound
Method: Figure 5 Kinetic analysis of the inhibition of recombinant SiaT from P. mirabilis (A,B) and S. aureus (C,D) reconstituted in proteoliposomes and [^3H]Neu5Ac efflux in proteoliposomes (E,F). (a–d) Data were plotted according to Lineweaver–Burk as a reciprocal transport rate vs reciprocal Neu5Ac concentration. The transport rate was measured, in 5 min, by adding [^3H] Neu5Ac at the indicated concentrations to proteoliposomes containing 20 mM K^+-gluconate in the presence of valinomycin as described in the Supporting Information. [(A,B) P. mirabilis SiaT]; (A) compound 3f 0.25 μM (●) or 0.75 μM (□) was added in comparison to samples without inhibitor (○). […] Data are calculated as the percent of residual activity with respect to the control sample (efflux time zero). […]
For uptake experiments, 600 μL of proteoliposomes were loaded onto a Sephadex G-75 column (0.7 cm diameter × 15 cm height), pre-equilibrated with 20 mM Hepes Tris pH 7.0 with 40 mM sucrose to balance the internal osmolarity. […] For kinetic measurement, the initial transport rate was measured by stopping the reaction after 5 min, that is, within the initial linear range of [^3H]-Neu5Ac uptake into the proteoliposomes previously described. […] Proteoliposomes were eluted with 1 mL of 50 mM NaCl and collected in a 4 mL of scintillation mixture, vortexed and counted.

[2] = test system: P. mirabilis HI4320; experiment: Growth in carbon-limited MM with inhibitor only, P. mirabilis; format: cell-based, Proteus mirabilis; conditions: MM with sodium citrate, compound 0.5 mM
Method: We first addressed whether these bacteria were able to catabolize the inhibitors and potentially use them as a carbon source for growth. Each strain was grown in carbon-limited defined minimal media (MM), without any carbon source other than sodium citrate for P. mirabilis and casamino acids for S. aureus, and supplemented with 3e and 3f. […] With these promising results, bacterial growth assays were performed in MM supplemented with Neu5Ac at a concentration of 3.2 mM and with 0.5 mM of compounds 3e and 3f (Figure 6a,b). The lag phase duration was determined as the time for the initial population density to increase twofold (see the horizontal dashed lines in Figure 6a,b). The effects were significant in the case of S. aureus, where a delayed growth of 4.4 and 9.4 h (P < 0.001) for compounds 3e and 3f, respectively, was observed. In the case of P. mirabilis, compound 3e indicated a delay in growth (3 h, P = 0.06), while no effect was recorded for compound 3f.
Figure S4. S. aureus COL (A) and P. mirabilis HI4320 (B) grown in defined carbon-limited minimal media (dotted line), with the addition of compound 3e (0.5 mM, solid line) or compound 3f (0.5 mM, dashed line). Average values of two biological replicates (n=2) each including two technical replicates are presented.
(1 picture or pasted object on this page, not shown here)

Chain of SaSiaT (A0A0H2XJ46 entry or part of it): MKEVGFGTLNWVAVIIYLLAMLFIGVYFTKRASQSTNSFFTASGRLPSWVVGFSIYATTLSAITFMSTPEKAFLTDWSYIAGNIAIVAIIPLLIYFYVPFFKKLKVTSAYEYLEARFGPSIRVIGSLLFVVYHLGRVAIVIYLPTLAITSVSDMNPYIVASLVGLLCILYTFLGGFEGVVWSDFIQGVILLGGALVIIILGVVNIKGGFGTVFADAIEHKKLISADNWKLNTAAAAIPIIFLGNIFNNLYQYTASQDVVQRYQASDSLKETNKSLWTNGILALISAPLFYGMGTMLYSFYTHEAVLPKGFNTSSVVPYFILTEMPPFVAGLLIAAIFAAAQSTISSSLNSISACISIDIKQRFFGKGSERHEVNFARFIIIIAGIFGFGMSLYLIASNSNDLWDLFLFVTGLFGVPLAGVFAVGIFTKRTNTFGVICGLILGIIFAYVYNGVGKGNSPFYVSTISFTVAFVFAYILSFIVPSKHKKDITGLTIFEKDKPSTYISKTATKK

## CC(=O)NC1C(OCc2cc(F)cc(F)c2)CC(O)(C(=O)O)OC1C(O)C(O)CO (stereo not shown) [Compound 3e]
[1]
  [3H]Neu5Ac efflux induced: to the same extent as Neu5Ac
[2]
  ability to catabolize compound (growth vs MM only): no ability to catabolize

## CC(=O)NC1C(OCc2cc(Br)cc(Br)c2)CC(O)(C(=O)O)OC1C(O)C(O)CO (stereo not shown) [Compound 3f]
[1]
  [3H]Neu5Ac efflux induced: negligible
[2]
  ability to catabolize compound (growth vs MM only): no ability to catabolize
